Type in all cases: functional
Experiment [1] deals with Vascular endothelial growth factor receptor 2 (Homo sapiens, UniProt P35968).
The target in experiment [2] is Epidermal growth factor receptor (Homo sapiens, UniProt P00533).
The target in experiment [3] is Receptor tyrosine-protein kinase erbB-2 (Homo sapiens, UniProt P04626).
The target of another experiment is T1, Thromboxane A2 receptor (Homo sapiens, UniProt P21731).
T1 sequence (P21731 whole entry): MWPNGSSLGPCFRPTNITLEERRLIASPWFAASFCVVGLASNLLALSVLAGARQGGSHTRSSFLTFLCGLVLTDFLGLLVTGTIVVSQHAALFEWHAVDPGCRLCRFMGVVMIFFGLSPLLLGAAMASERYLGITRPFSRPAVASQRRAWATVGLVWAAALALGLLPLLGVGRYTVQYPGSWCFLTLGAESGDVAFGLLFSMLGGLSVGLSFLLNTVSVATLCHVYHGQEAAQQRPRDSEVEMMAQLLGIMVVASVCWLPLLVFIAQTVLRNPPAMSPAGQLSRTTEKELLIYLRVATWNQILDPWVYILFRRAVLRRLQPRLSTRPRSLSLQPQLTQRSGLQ

In experiment [4] the target is T2, Estrogen receptor (Homo sapiens, UniProt P03372).
T2 sequence (P03372 whole entry): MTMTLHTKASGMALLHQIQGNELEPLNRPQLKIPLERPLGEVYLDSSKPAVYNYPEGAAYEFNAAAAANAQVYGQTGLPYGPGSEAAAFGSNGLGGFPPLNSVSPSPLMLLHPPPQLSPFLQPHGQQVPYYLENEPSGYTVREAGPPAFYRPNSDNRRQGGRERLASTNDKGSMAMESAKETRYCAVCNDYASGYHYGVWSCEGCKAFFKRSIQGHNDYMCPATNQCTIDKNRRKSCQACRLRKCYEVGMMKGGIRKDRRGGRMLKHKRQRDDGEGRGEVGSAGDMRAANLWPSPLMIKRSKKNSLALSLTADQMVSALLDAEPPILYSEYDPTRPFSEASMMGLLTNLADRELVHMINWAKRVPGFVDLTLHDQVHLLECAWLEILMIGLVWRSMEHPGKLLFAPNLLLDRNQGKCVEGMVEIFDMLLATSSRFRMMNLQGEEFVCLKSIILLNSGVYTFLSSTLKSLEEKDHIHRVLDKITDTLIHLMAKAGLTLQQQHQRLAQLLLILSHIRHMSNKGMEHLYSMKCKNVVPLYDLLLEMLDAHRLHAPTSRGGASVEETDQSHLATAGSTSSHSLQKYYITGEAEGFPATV

The target of experiment [5] is T2, Estrogen receptor. This is another data set of the same source.
The next experiment addresses Acetylcholinesterase (Homo sapiens, UniProt P22303).

SMILES strings stand for the structures.
Also: assay procedure not described here.

Chain of Receptor tyrosine-protein kinase erbB-2 (P04626 whole entry): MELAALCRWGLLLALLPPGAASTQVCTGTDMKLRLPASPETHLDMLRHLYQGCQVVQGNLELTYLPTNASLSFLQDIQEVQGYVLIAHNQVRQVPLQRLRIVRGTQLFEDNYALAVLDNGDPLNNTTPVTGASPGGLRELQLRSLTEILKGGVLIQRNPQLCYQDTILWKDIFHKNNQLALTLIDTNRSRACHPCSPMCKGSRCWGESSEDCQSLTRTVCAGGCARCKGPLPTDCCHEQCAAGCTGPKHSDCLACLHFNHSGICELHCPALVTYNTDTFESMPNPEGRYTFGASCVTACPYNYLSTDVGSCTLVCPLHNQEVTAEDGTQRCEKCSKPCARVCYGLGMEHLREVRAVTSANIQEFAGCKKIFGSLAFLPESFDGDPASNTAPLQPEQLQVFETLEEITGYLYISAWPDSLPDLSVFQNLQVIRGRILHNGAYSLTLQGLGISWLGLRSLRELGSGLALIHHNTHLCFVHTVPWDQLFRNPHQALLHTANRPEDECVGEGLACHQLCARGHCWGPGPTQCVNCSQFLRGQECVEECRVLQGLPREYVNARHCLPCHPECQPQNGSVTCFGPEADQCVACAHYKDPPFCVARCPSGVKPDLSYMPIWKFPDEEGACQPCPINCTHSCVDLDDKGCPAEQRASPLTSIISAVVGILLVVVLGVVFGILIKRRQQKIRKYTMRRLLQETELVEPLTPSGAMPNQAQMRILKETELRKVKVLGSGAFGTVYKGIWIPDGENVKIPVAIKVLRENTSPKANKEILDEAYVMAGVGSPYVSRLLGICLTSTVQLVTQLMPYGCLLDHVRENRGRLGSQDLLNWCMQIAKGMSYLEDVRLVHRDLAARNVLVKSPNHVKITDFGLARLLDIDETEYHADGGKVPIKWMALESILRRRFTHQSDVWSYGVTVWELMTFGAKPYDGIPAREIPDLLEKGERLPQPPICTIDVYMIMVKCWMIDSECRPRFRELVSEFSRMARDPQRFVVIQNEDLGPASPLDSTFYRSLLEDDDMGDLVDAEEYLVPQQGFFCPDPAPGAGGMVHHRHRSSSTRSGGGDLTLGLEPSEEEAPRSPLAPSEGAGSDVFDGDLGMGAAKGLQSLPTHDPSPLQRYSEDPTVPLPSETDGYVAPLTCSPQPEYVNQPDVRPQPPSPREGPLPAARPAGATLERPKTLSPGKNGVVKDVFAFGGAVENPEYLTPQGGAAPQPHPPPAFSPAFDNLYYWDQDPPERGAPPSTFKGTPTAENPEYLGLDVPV
Chain of Epidermal growth factor receptor (P00533 whole entry): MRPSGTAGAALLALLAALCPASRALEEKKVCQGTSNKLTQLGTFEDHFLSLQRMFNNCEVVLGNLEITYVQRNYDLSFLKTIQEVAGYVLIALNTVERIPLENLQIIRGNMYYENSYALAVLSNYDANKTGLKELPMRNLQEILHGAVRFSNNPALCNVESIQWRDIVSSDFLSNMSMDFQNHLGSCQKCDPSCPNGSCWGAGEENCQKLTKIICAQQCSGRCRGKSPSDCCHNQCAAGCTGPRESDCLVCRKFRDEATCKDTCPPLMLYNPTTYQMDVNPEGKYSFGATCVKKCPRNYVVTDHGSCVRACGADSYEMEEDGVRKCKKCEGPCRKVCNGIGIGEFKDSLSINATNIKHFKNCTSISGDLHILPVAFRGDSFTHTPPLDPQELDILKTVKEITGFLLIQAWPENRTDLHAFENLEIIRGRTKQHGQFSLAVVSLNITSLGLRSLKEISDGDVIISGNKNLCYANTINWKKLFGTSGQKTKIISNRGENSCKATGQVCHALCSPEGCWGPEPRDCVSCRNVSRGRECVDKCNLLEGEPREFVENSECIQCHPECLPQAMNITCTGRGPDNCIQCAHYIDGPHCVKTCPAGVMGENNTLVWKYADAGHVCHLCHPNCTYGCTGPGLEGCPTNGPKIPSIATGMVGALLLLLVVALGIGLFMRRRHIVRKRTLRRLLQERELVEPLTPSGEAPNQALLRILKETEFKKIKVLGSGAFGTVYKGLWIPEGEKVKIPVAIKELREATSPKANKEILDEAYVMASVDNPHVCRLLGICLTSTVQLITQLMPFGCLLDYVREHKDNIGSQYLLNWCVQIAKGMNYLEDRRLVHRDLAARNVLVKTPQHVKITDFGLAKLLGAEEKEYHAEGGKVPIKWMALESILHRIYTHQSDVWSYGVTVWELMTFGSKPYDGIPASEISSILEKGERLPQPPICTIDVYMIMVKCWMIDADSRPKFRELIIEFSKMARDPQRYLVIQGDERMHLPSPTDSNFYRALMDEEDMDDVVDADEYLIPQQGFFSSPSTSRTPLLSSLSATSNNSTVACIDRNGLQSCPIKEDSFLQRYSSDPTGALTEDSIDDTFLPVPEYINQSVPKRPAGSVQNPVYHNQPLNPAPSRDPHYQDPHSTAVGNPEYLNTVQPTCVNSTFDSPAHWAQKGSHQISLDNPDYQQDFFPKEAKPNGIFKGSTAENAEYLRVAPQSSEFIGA
Chain of Vascular endothelial growth factor receptor 2 (P35968 whole entry): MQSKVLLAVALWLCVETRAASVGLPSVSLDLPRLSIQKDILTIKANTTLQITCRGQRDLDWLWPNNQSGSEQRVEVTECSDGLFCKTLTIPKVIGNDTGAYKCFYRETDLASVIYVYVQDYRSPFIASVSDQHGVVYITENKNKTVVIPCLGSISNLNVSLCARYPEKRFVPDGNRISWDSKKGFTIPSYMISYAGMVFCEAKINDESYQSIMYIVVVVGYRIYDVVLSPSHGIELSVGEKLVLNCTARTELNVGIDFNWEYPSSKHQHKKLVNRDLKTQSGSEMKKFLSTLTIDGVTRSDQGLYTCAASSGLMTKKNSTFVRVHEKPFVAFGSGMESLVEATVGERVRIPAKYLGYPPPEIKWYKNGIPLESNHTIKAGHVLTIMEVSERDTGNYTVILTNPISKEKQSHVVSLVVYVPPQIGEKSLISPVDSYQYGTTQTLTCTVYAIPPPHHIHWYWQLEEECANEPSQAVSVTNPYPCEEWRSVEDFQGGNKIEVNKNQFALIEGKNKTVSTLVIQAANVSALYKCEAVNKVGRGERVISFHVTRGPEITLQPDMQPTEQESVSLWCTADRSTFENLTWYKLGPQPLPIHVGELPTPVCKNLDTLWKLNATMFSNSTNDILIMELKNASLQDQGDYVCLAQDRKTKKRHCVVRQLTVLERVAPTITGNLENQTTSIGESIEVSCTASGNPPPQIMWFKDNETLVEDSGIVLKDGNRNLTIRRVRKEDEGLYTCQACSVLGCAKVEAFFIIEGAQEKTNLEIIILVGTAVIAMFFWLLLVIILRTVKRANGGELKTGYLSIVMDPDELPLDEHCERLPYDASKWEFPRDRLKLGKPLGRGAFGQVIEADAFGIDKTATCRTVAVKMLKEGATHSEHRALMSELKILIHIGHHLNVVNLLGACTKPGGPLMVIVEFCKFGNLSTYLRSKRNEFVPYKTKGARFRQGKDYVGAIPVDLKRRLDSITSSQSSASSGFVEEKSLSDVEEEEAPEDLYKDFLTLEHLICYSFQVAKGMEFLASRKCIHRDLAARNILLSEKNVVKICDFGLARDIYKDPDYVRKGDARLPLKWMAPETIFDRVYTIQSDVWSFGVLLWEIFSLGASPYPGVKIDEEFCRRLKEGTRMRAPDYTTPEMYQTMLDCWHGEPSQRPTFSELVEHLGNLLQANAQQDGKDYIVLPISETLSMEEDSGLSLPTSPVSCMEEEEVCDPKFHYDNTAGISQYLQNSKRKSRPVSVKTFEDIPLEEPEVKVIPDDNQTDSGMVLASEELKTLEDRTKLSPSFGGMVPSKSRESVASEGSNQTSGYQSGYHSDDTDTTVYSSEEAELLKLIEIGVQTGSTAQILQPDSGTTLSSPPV
Chain of Acetylcholinesterase (P22303 whole entry): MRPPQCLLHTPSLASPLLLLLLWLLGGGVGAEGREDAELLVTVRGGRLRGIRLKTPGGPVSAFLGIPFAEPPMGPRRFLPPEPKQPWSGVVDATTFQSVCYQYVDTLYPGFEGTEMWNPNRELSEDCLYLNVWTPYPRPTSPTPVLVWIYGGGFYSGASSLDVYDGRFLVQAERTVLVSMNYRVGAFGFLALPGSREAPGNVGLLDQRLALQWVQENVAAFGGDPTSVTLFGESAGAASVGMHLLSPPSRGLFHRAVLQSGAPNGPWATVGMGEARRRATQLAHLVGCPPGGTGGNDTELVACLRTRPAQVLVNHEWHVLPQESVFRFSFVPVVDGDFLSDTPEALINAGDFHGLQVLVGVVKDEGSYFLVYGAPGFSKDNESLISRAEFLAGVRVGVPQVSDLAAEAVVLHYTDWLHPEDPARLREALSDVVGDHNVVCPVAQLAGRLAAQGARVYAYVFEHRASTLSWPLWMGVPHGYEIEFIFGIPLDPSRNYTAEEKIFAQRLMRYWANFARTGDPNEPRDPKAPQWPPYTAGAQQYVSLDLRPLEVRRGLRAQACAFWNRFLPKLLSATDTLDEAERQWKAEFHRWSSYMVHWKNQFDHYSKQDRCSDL

For the molecule `Cc1nnc(SCC2=C(C(=O)O)N3C(=O)[C@@H](NC(=O)Cn4cnnn4)[C@H]3SC2)s1` [CEFAZOLIN], the half-maximal activity concentration (AC50) (in experiment [1]; in experiment [2]; in experiment [3]; on Thromboxane A2 receptor; at Estrogen receptor [4]; at Estrogen receptor [5]) was > 300 µM throughout. Further, the AC50 at Acetylcholinesterase is > 300 µM.
Turning to `S=P(N1CC1)(N1CC1)N1CC1` [THIOTEPA], the AC50 was > 30 µM in experiment [1]; > 30 µM in experiment [2]; > 30 µM in experiment [3]; > 10 µM on Thromboxane A2 receptor; > 30 µM on Estrogen receptor [4]; > 30 µM on Estrogen receptor [5]. Also, at Acetylcholinesterase, the AC50 is > 30 µM.
As to `CC(C)(O/N=C(\C(=O)N[C@@H]1C(=O)N2C(C(=O)[O-])=C(C[n+]3ccccc3)CS[C@H]12)c1csc(N)n1)C(=O)O` [CEFTAZIDIME], the AC50 in experiment [1] is > 300 µM; in experiment [2], > 3 µM; in experiment [3], > 300 µM; on Thromboxane A2 receptor, > 300 µM; at Estrogen receptor [4], > 300 µM; at Estrogen receptor [5] it was 48 µM. The AC50 on Acetylcholinesterase is > 300 µM.
Regarding `CCOc1cc([C@@H](CS(C)(=O)=O)N2C(=O)c3cccc(NC(C)=O)c3C2=O)ccc1OC`, the AC50 (in experiment [1]; in experiment [2]; in experiment [3]; on Thromboxane A2 receptor; at Estrogen receptor [4]; on Estrogen receptor [5]) was > 30 µM throughout. The AC50 on Acetylcholinesterase was > 30 µM.

As a reminder, the AC50 is the concentration giving half of the maximal activity seen. Read a low AC50 as greater potency.

These data come from ChEMBL document CHEMBL5291721, “A preclinical secondary pharmacology resource illuminates target-adverse drug reaction associations of marketed drugs” (Nat Commun, 2023).
